28 compounds from patent US8329904B2, “Azacyclic derivatives” (Hoffmann-La Roche Inc., priority 2009, dated 2012) can be followed below.

pIC50: −log10 of the molar value.

The assay addresses T1, human HSL (Homo sapiens, UniProt Q05469).
T1 construct: overlapping PCR to generate a full length human HSL ORF with a 3′-His6 tag; His6 (C); made in house; host or cells: High 5 insect cells (baculovirus, pFast-BAC)
T1 sequence (Q05469 1-1076): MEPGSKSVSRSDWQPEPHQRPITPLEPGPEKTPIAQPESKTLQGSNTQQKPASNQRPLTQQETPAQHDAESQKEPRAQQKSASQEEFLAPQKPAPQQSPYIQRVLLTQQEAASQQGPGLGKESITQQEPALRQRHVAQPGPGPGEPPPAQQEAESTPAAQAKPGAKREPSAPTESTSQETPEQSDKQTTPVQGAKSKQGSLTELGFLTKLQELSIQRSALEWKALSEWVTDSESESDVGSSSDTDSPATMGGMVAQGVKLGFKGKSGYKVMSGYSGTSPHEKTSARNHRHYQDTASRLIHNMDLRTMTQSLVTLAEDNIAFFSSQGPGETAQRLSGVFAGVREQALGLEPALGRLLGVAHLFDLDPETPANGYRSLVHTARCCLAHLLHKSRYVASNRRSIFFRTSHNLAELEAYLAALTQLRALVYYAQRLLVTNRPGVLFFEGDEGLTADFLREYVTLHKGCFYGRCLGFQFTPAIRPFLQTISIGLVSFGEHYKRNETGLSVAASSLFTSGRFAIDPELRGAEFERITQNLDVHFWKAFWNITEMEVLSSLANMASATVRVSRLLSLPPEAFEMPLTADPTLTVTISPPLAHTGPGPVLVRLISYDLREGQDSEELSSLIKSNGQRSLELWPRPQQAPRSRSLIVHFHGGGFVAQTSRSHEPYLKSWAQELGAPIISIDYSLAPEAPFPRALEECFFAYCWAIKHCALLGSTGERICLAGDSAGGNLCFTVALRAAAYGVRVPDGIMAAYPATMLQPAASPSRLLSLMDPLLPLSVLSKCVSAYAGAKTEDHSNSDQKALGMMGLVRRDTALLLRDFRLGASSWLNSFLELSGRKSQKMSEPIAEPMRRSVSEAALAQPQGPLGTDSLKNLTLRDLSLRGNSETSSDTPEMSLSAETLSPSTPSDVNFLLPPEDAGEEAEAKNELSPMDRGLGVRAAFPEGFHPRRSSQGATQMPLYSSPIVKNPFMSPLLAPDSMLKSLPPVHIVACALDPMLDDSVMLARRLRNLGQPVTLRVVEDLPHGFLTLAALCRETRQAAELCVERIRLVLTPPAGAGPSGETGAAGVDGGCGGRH
Description: Human Hormone-Sensitive Lipase (HSL) Enzyme Inhibition Assay. In kind it is biochemical. To be noted: colorimetric assay, 2,3-dimercapto-1-propanol tributyrate (DMPT) substrate, 37° C. for 20 minutes, absorbance at 405 nm; read-out: HSL hum IC50. In outline:
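Colorimetric thioester hydrolysis: compounds in DMSO series mixed with DMPT (1.5 mM) in MOPS pH 7.2 with BSA, then baculovirus-expressed His6-tagged full-length human HSL added, 37° C, 20 min. DTNB plus detergents added, 15 min room temperature, absorbance at 405 nm.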
Take `CC(C)CS(=O)(=O)N1CCC2(CCN(c3ccc(OCC4CC4)cc3)C2=O)CC1` [Example 94, 2-(4-Cyclopropylmethoxy-phenyl)-8-(2-methyl-propane-1-sulfonyl)-2,8-diaza-spiro[4.5]decan-1-one]: the pIC50 was 6.57. Then `CCc1ccc(N2CCC3(CCN(S(=O)(=O)c4ccc(F)cc4C(F)(F)F)CC3)C2=O)cc1` [Example 75, 2-(4-Ethyl-phenyl)-8-(4-fluoro-2-trifluoromethyl-benzenesulfonyl)-2,8-diaza-spiro[4.5]decan-1-one], with 6.59. Turning to `CCC(C)c1ccc(N2CCC3(CCN(S(=O)(=O)N4CCOCC4)CC3)C2=O)cc1` (stereo not shown) [Example 44, 2-(4-sec-Butyl-phenyl)-8-(morpholine-4-sulfonyl)-2,8-diaza-spiro[4.5]decan-1-one], the negative-log IC50 (pIC50) was 7.00. Then `O=C1N(c2ccc(OC(F)(F)F)cc2)CCC12CCN(S(=O)(=O)c1ncccn1)CC2` [Example 202, 8-(Pyrimidine-2-sulfonyl)-2-(4-trifluoromethoxy-phenyl)-2,8-diaza-spiro[4.5]decan-1-one], with 6.80; and `CN(C(=O)N1CCC2(CC1)CCN(c1ccc(OC(F)(F)F)cc1)C2=O)c1ccccc1` [Example 275, 1-Oxo-2-(4-trifluoromethoxy-phenyl)-2,8-diaza-spiro[4.5]decane-8-carboxylic acid methyl-phenyl-amide], with 7.22; and `CCN(CCc1ccccn1)C(=O)N1CCC2(CC1)CCN(c1ccc(OC(F)(F)F)cc1)C2=O` [Example 284, 1-Oxo-2-(4-trifluoromethoxy-phenyl)-2,8-diaza-spiro[4.5]decane-8-carboxylic acid ethyl-(2-pyridin-2-yl-ethyl)-amide], with 6.82. Then `CCCN(C)C(=O)N1CCC2(CC1)CCN(c1ccc(OC(F)(F)F)cc1)C2=O` [Example 253, 1-Oxo-2-(4-trifluoromethoxy-phenyl)-2,8-diaza-spiro[4.5]decane-8-carboxylic acid methyl-propyl-amide], with 6.85. For `O=C1N(c2ccc(OCC(F)(F)F)cc2)CCC12CCN(S(=O)(=O)c1ccccc1OC(F)(F)F)CC2` [Example 79, 2-[4-(2,2,2-Trifluoro-ethoxy)-phenyl]-8-(2-trifluoromethoxy-benzenesulfonyl)-2,8-diaza-spiro[4.5]decan-1-one] the value was 7.40; for `O=C1N(CCCCc2ccccc2)CCC12CCN(S(=O)(=O)c1ccccc1Cl)CC2` [Example 246, 8-(2-Chloro-benzenesulfonyl)-2-(4-phenyl-butyl)-2,8-diaza-spiro[4.5]decan-1-one], 7.10. As for `O=C1N(c2ccc(C3CC3)cc2)CCC12CCN(S(=O)(=O)c1ccccc1OC(F)(F)F)CC2` [Example 82, 2-(4-Cyclopropyl-phenyl)-8-(2-trifluoromethoxy-benzenesulfonyl)-2,8-diaza-spiro[4.5]decan-1-one], the pIC50 is 6.96. For `CC(Cc1ccc(F)cc1)N1CCC2(CCN(S(=O)(=O)c3ccccc3Cl)CC2)C1=O` (stereo not shown) [Example 249, 8-(2-Chloro-benzenesulfonyl)-2-[2-(4-fluoro-phenyl)-1-methyl-ethyl]-2,8-diaza-spiro[4.5]decan-1-one] the value was 6.34; for `CCN(CCOC)C(=O)N1CCC2(CC1)CCN(c1ccc(OC(F)(F)F)cc1)C2=O` [Example 274, 1-Oxo-2-(4-trifluoromethoxy-phenyl)-2,8-diaza-spiro[4.5]decane-8-carboxylic acid ethyl-(2-methoxy-ethyl)-amide], 6.85; for `CC(C)(C)CC(=O)N1CCC2(CC1)CCN(c1ccc(OCC(F)(F)F)nc1)C2=O` [Example 122, 8-(3,3-Dimethyl-butyryl)-2-[6-(2,2,2-trifluoro-ethoxy)-pyridin-3-yl]-2,8-diaza-spiro[4.5]decan-1-one], 6.27. Consider `Cc1ccc(S(=O)(=O)N2CCC3(CCN(c4ccc(OC(F)(F)F)cc4)C3=O)CC2)nn1` [Example 204, 8-(6-Methyl-pyridazine-3-sulfonyl)-2-(4-trifluoromethoxy-phenyl)-2,8-diaza-spiro[4.5]decan-1-one], for which the pIC50 was 6.85.

On to `COC1(CS(=O)(=O)N2CCC3(CCN(c4ccc(OC(F)(F)F)cc4)C3=O)CC2)CCCC1` [Example 211, 8-(1-Methoxy-cyclopentylmethanesulfonyl)-2-(4-trifluoromethoxy-phenyl)-2,8-diaza-spiro[4.5]decan-1-one], for which the pIC50 is 6.89. Then `O=C1N(c2ccc(OC(F)(F)F)cc2)CCC12CCN(S(=O)(=O)c1ccccc1OC(F)(F)F)CC2` [Example 55, 8-(2-Trifluoromethoxy-benzenesulfonyl)-2-(4-trifluoromethoxy-phenyl)-2,8-diaza-spiro[4.5]decan-1-one], with 7.70; and `COCC(C)(C)c1ccc(N2CCC3(CCN(S(=O)(=O)c4ccccc4OC(F)(F)F)CC3)C2=O)cc1` [Example 110, 2-[4-(2-Methoxy-1,1-dimethyl-ethyl)-phenyl]-8-(2-trifluoromethoxy-benzenesulfonyl)-2,8-diaza-spiro[4.5]decan-1-one], with 7.52.

On to `Cc1noc(C)c1S(=O)(=O)N1CCC2(CCN(c3ccc(OC(C)C(F)(F)F)cc3)C2=O)CC1` (stereo not shown) [Example 97, 8-(3,5-Dimethyl-isoxazole-4-sulfonyl)-2-[4-(2,2,2-trifluoro-1-methyl-ethoxy)-phenyl]-2,8-diaza-spiro[4.5]decan-1-one], for which the pIC50 is 6.96.

Take `O=C1N(c2ccc(C(O)C(F)(F)F)cc2)CCC12CCN(S(=O)(=O)c1ccccc1OC(F)(F)F)CC2` (stereo not shown) [Example 163, 2-[4-(2,2,2-Trifluoro-1-hydroxy-ethyl)-phenyl]-8-(2-trifluoromethoxy-benzenesulfonyl)-2,8-diaza-spiro[4.5]decan-1-one]: the pIC50 was 7.70. For `CC(C)CS(=O)(=O)N1CCC2(CCN(c3ccc(OS(=O)(=O)C4CC4)cc3)C2=O)CC1` [Example 64, Cyclopropanesulfonic acid 4-[8-(2-methyl-propane-1-sulfonyl)-1-oxo-2,8-diaza-spiro[4.5]dec-2-yl]-phenyl ester] the value was 6.66; for `COC(=O)c1cccc(C)c1S(=O)(=O)N1CCC2(CCN(c3ccc(OC(F)(F)F)cc3)C2=O)CC1` [Example 234, 3-Methyl-2-[1-oxo-2-(4-trifluoromethoxy-phenyl)-2,8-diaza-spiro[4.5]decane-8-sulfonyl]-benzoic acid methyl ester], 6.82; for `O=C1N(c2ccc(C3CC3)cc2)CCC12CCN(S(=O)(=O)c1cccs1)CC2` [Example 36, 2-(4-Cyclopropyl-phenyl)-8-(thiophene-2-sulfonyl)-2,8-diaza-spiro[4.5]decan-1-one], 7.30. For `CC(C)c1ccc(N2CCC3(CCN(S(=O)(=O)c4ccccc4)CC3)C2=O)cn1` [Example 10, 8-Benzenesulfonyl-2-(6-isopropyl-pyridin-3-yl)-2,8-diaza-spiro[4.5]decan-1-one] the value was 6.89; for `CCc1ccc(N2CCC3(CCN(S(=O)(=O)c4ccccc4OC(F)(F)F)CC3)C2=O)cc1` [Example 54, 2-(4-Ethyl-phenyl)-8-(2-trifluoromethoxy-benzenesulfonyl)-2,8-diaza-spiro[4.5]decan-1-one], 7.52; for `COCCNS(=O)(=O)N1CCC2(CCN(c3ccc(OC(F)(F)F)cc3)C2=O)CC1` [Example 289, 1-Oxo-2-(4-trifluoromethoxy-phenyl)-2,8-diaza-spiro[4.5]decane-8-sulfonic acid (2-methoxy-ethyl)-amide], 6.64. Then `O=C1N(c2ccc(OCC3CCCC3)cc2)CCC12CCN(S(=O)(=O)c1ccccc1Cl)CC2` [Example 133, 8-(2-Chloro-benzenesulfonyl)-2-(4-cyclopentylmethoxy-phenyl)-2,8-diaza-spiro[4.5]decan-1-one], with 6.22. In the case of `O=C1N(c2ccc(Cl)nc2)CCC12CCN(S(=O)(=O)c1ccccc1)CC2` [Example 11, 8-Benzenesulfonyl-2-(6-chloro-pyridin-3-yl)-2,8-diaza-spiro[4.5]decan-1-one], the pIC50 was 5.77. Take `COc1ccc(N2CCC3(CCN(S(=O)(=O)c4ccccc4)CC3)C2=O)nn1` [Example 16, 8-Benzenesulfonyl-2-(6-methoxy-pyridazin-3-yl)-2,8-diaza-spiro[4.5]decan-1-one]: the pIC50 was 4.82.

One may read the pIC50 as the negative decadic logarithm of the IC50, by convention in mol/L.
